Measurements as given in article PMC11344480 (ACS infectious diseases, 2021).
Values after ≈ are worked out from the molar mass of the structure shown.

Assays:
Candida species = conditions: via targeting of AHAS; cited from earlier work
C. dubliniensis = test: Modified MIC50 assay; format: cell-based, C. dubliniensis CD36; conditions: Candida dubliniensis, 24 h
C. albicans [1] = test: Modified MIC50 assay; format: cell-based, C. albicans SC5314; conditions: 24 h
C. auris = test: Modified MIC50 assay; format: cell-based; conditions: Candidozyma auris, 24 h
C. albicans AHAS = conditions: cited from earlier work
C. albicans [2] = conditions: mice, prophylactic administration; cited from earlier work
C. tropicalis = test: Modified MIC50 assay; format: cell-based, C. tropicalis MYA3404; conditions: Candida tropicalis, 24 h
[3] = XTT reduction viability assay; format: cell-based; conditions: human
NLRP3 inflammasome = NLRP3 inflammasome (Homo sapiens, UniProt Q96P20); format: cell-based
C. albicans [4] = conditions: prior work of the laboratory; cited from earlier work

Chain of NLRP3 inflammasome (Q96P20 whole entry): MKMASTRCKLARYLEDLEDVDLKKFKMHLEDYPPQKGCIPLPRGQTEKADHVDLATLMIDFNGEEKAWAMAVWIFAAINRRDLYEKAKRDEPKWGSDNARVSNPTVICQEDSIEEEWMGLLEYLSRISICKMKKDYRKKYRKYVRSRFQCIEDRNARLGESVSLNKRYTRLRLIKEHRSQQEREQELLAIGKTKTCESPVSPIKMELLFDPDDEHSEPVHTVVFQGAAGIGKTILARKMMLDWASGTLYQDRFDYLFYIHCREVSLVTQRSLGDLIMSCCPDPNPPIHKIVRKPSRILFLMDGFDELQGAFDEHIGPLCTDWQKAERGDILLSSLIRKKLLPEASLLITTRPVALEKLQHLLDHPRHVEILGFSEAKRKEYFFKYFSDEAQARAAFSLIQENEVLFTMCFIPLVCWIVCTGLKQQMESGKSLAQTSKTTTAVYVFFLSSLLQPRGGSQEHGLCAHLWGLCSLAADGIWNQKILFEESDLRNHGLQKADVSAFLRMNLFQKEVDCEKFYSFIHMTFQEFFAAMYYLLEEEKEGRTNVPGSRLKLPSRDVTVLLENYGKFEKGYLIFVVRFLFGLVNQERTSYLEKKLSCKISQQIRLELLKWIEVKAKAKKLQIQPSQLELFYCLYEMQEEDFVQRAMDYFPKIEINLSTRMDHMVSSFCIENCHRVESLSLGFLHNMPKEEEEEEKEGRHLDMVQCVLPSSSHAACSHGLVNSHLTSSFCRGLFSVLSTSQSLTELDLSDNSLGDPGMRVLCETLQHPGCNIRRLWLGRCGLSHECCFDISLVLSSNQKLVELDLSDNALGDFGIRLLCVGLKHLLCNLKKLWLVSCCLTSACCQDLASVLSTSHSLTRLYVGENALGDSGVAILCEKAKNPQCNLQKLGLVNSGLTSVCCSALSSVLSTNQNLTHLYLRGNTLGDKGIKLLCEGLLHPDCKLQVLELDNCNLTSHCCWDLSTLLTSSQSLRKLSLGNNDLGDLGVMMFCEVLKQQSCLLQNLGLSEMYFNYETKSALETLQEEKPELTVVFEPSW

SMILES | growth of the Candida species (Candida species) | MIC50 (C. dubliniensis) [µM] | MIC50 (C. albicans [1]; C. albicans, YNB, mean ± SD) [µM] | MIC50 (C. albicans [1]; Candida albicans) [µM] | MIC50 (C. auris) [µM] | inhibition of purified C. albicans AHAS protein (C. albicans AHAS) | fungal burden in the kidney, spleen, liver, and lungs (C. albicans [2]) | protection against disseminated C. albicans infection (C. albicans [2]) | MIC50 (C. tropicalis) [µM] | viability at 5 h, 50 µM [3] [%] | IC50 (NLRP3 inflammasome) [µM] | preventing fungal growth or filamentation (C. albicans [4])
CCOC(=O)c1ccccc1S(=O)(=O)NC(=O)Nc1nc(Cl)cc(OC)n1 [Compound 13, chlorimuron ethyl] | effective at reducing growth | 1.3 ± 0.7 (≈ 0.539 µg/mL) | 0.5 ± 0.2 (≈ 0.207 µg/mL) | 0.5 (≈ 0.207 µg/mL) | 0.8 ± 0.3 (≈ 0.332 µg/mL) | potent inhibitors | significantly reduced fungal burden | provided protection | 21.1 ± 3 (≈ 8.75 µg/mL) | 103 ± 7.3 | > 50 | –
COc1ccc(Cl)cc1C(=O)NCCc1ccc(S(=O)(=O)NC(=O)NC2CCCCC2)cc1 [glyburide] | – | – | – | – | – | – | – | – | – | – | – | completely ineffective
